{"source": "patent US5427922A", "about": "(Takeda Chemical Industries, Ltd., priority 1992, dated 1995)", "key": {"[1]": {"tested_on": "Ang II receptor", "conditions": "cited from earlier work"}, "[2]": {"biological_target": "T1, Ang II type 1 receptor of human placental origin (Homo sapiens, UniProt P30556)", "T1 sequence (P30556 1-359 Q187R/F204S/L205C/K232N/K240R/L268Q/C289W/R311K/Y312D/F313I)": "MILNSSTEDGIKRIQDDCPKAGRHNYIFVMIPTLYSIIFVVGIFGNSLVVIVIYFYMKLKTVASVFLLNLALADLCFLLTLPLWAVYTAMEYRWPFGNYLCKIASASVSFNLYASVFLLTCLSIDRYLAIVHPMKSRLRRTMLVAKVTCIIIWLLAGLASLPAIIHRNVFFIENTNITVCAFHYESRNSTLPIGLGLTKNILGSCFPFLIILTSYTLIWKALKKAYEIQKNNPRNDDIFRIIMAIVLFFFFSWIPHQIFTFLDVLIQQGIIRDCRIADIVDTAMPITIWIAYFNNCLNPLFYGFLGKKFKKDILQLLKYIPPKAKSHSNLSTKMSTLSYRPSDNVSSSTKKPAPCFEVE", "test": "Binding of radiolabeled Ang II (competition) using membrane fraction of CHO/pHARp306 cells", "conditions": "[125I]-Ang II, 22° C., 45 minutes", "protocol": "All measurements were performed in a series of three runs. […] An aliquot of membrane fraction equivalent to 10 μg of protein was suspended in a 0.1% (w/v) BSA solution containing 25 mM Tris (pH 7.6) and 5 mM magnesium chloride, to yield a 194 μl suspension. […] After 45 minutes of reaction, the reaction mixture was aspirated onto a glass filter, which was washed with 4 ml of ice-cooled Tris (pH 7.6), and the residual radioactivity on the glass filter was measured using a γ-ray counter. The final sample concentration was varied over a range of from 1 pM to 10 μM. In the measurement, the amount of non-specific binding was defined as 0%, and the maximum mount of binding in the absence of sample defined as 100%. With this regard, the -log (M) value of the sample concentration (M) resulting in 50% binding was defined as IC50 value."}, "[3]": {"biological_target": "T2, Ang II type 1 receptor of human heart origin (Homo sapiens, UniProt P30556)", "T2 sequence (P30556 1-359)": "T1 sequence (P30556 1-359 Q187R/F204S/L205C/K232N/K240R/L268Q/C289W/R311K/Y312D/F313I) with R187Q, S204F, C205L, N232K, R240K, Q268L, W289C, K311R, D312Y, I313F", "test": "Binding of radiolabeled Ang II (competition) using membrane fraction of control CHO/pHARt306 cells", "conditions": "for Competition; IC50 [-log(M)]: membrane fraction of CHO/pHARt306 (human heart origin), [125I]-Ang II, 22° C., 45 minutes", "protocol": "All measurements were performed in a series of three runs. […] An aliquot of membrane fraction equivalent to 10 μg of protein was suspended in a 0.1% (w/v) BSA solution containing 25 mM Tris (pH 7.6) and 5 mM magnesium chloride, to yield a 194 μl suspension. […] After 45 minutes of reaction, the reaction mixture was aspirated onto a glass filter, which was washed with 4 ml of ice-cooled Tris (pH 7.6), and the residual radioactivity on the glass filter was measured using a γ-ray counter. The final sample concentration was varied over a range of from 1 pM to 10 μM. In the measurement, the amount of non-specific binding was defined as 0%, and the maximum mount of binding in the absence of sample defined as 100%. With this regard, the -log (M) value of the sample concentration (M) resulting in 50% binding was defined as IC50 value. A membrane fraction was also extracted from control CHO/pHARt306 cells in the same manner as above, and assayed using the same assay system."}, "[4]": {"tested_on": "type 1 receptors", "conditions": "cited from earlier work"}, "[5]": {"tested_on": "reactions of KCl, norepinephrine, isoproterenol, vasopressin, bradykinin, acetylcholine or 5-HT", "conditions": "at suppressive doses for a high concentration (10 μM) of Ang II; cited from earlier work"}, "[6]": {"tested_on": "ACE", "conditions": "at suppressive doses for a high concentration (10 μM) of Ang II; cited from earlier work"}, "[7]": {"biological_target": "T3, Ang II type 1 receptor from human placenta (Homo sapiens, UniProt P30556)", "T3 sequence (P30556 1-359 Q187R/F204S/L205C/K232N/K240R/L268Q/C289W/R311K/Y312D/F313I)": "T1 sequence (P30556 1-359 Q187R/F204S/L205C/K232N/K240R/L268Q/C289W/R311K/Y312D/F313I)", "test": "Radio-labeled Ang II binding activity in animal cells (COS7/pHARp306) expressing full-length Ang II type 1 receptor gene from human placenta", "conditions": "10 μM agonist or antagonist added; 100 pM [125I]-Ang II; room temperature, 60 minutes; control (none) 84,148 cpm", "protocol": "To each well of a 6 well petri dish, 2 ml of a DMEM medium (produced by DIFCO) containing 5% (v/v) FCS was added, and 5×10^4 COS7 cells were seeded. After incubation at 37° C. in the presence of 5% carbon dioxide for two days, the medium was aspirated and twice washed with DMEM medium."}, "[8]": {"tested_on": "type 2 receptors", "conditions": "cited from earlier work"}, "[9]": {"biological_target": "T4, full-length Ang II type 1 receptor of human placental origin (Homo sapiens, UniProt P30556)", "T4 sequence (P30556 1-359 Q187R/F204S/L205C/K232N/K240R/L268Q/C289W/R311K/Y312D/F313I)": "T1 sequence (P30556 1-359 Q187R/F204S/L205C/K232N/K240R/L268Q/C289W/R311K/Y312D/F313I)", "conditions": "10 μM forskolin in place of Ang II; CHO/pHARp306", "protocol": "(§1) To each well of a 24 well petri dish, a DMEM medium containing 10% (v/v) dialyzed FCS and 35 μg/ml L-proline was added, and 1×10^5 CHO/pHAR306 cells were inoculated. […] After the reaction mixture was removed using an aspirator, 500 μl of a 5% (w/v) trichloroacetic acid solution was added to each well to stop the reaction. The amount of cAMP was measured by EIA (cAMP enzyme immunoassay system, produced by Amersham)."}, "[10]": {"biological_target": "T5, full-length Ang II type 1 receptor of human heart origin (Homo sapiens, UniProt P30556)", "T5 sequence (P30556 1-359)": "T1 sequence (P30556 1-359 Q187R/F204S/L205C/K232N/K240R/L268Q/C289W/R311K/Y312D/F313I) with R187Q, S204F, C205L, N232K, R240K, Q268L, W289C, K311R, D312Y, I313F", "conditions": "CHO/pHARt306", "protocol": "as §1"}, "[11]": {"biological_target": "T4, full-length Ang II type 1 receptor of human placental origin", "test": "Changes in intracellular inositol phosphate (IPs) concentration in CHO/pHARp306 cells", "format": "cell-based", "protocol": "(§2) To each well of a 12 well petri dish, a DMEM medium containing 10% (v/v) dialyzed-FCS and 35 μg/ml L-proline was added, and 1×10^5 CHO/pHAR306 cells were inoculated. One day later, the medium was replaced with the same medium but containing 1 μCi/ml [^3 H]-labeled inositol (Amersham), and cultivation was continued for 24 hours. The petri dish was twice washed with a PBS buffer (FLOW Laboratories) containing 0.2% (w/v) BSA and then kept standing for 30 minutes, after which it was kept standing at 37° C. for 30 minutes in the presence of the same buffer but containing 10 mM lithium chloride. […] When the reaction time exceeded 30 seconds, the reaction mixture was removed using an aspirator, after which 1 ml of a 5% (w/v) trichloroacetic acid solution was added to each well to stop the reaction. When the reaction time was 5 to 30 seconds, 1 ml of a 10% (w/v) trichloroacetic acid solution was injected directly to each well to stop the reaction. The [^3 H]-labeled inositol phosphate (IPs) was separated using ion exchange column AG 1-X8 (Bio-Rad Laboratories). […] The radioactivity of each fraction was determined using a liquid scintillation counter."}, "[12]": {"biological_target": "T4, full-length Ang II type 1 receptor of human placental origin", "test": "Ang II binding activity of isolated CHO cell clone (method of Example 9)", "conditions": "CHO/pHARp306 clone", "procedure": "After the mixture was thrice washed with TSMB buffer, cells were solubilized with 1N sodium hydroxide (1 ml), and their radioactivity was determined using a γ-ray counter."}, "[13]": {"biological_target": "T5, full-length Ang II type 1 receptor of human heart origin", "conditions": "CHO/pHARt306", "remark": "listed apart in the source", "protocol": "as §2"}, "[14]": {"tested_on": "full-length Ang II type 1 receptor from human placenta", "test": "Change in intracellular calcium ion concentration in CHOdhfr-/pHARp206 cells (Fura-2AM fluorescence)", "format": "cell-based", "conditions": "final concentration 1 μM, 37° C.", "protocol": "To each of two collagen-treated slide glasses (1×4 cm) in a 6 cm petri dish, 4 ml of an ASF104 medium (produced by Ajinomoto) containing 5% (v/v) FCS (fetal calf serum) was added, and 5×10^5 CHOdhfr- cells were seeded. After incubation at 37° C. in the presence of 5% carbon dioxide for one day, the medium was aspirated and twice washed with ASF104 medium. 5 μg of the above plasmid pHARp206 was dissolved in 50 μl of HBS buffer (8.0 g/l sodium chloride, 380 mg/l potassium chloride, 200 mg/l disodium monohydrogen phosphate, 5.9 g/l HEPES, 15 mg/l calcium chloride dihydrate, 10 mg/l magnesium chloride hexahydrate, pH 7.45). […]\nAfter the above transformant cells CHOdhfr-/pHARp206 were twice washed with HEPES buffer (140 mM sodium chloride, 5 mM potassium chloride, 1 mM magnesium sulfate, 1 mM disodium monohydrogen phosphate, 1 mM calcium chloride, 25 mM glucose, 25 mM HEPES; pH 7.2), 4 ml of a HEPES buffer containing 4 μM Fura-2AM (Dojin Kagaku) was added, and the mixture was kept standing at 15° C. in the dark for 80 minutes. […] Fluorescence at a wavelength of 505 nm, generated upon excitation with ultraviolet rays of wavelengths of 340 nm and 380 nm, was measured."}}, "note": "Numbering of substitutions follows the chain as printed."}
{"compound": "CCCCc1nc(Cl)c(CC(=O)[O-])n1Cc1ccccc1[N+](=O)[O-].[Na+]", "note": "[CV2961]", "values": [{"measurement": "Ang II receptor antagonist activity", "setting": "[1]", "value": "found to possess Ang II receptor antagonist activity"}]}
{"compound": "CCOc1nc2cccc(C(=O)O)c2n1Cc1ccc(-c2ccccc2-c2nn[nH]n2)cc1", "note": "[CV-11974]", "values": [{"measurement": "Competition; IC50 [-log(M)], column A (second; B in text)", "setting": "[2]", "value": "9.61 -log(M)"}, {"measurement": "IC50", "setting": "[3]; read-out: Competition, IC50 [-log(M)] (converted)", "value": "3.31e-10", "unit": "M"}]}
{"compound": "CCCCc1nc(Cl)c(CO)n1Cc1ccc(-c2ccccc2-c2nn[nH]n2)cc1", "note": "[DuP753]", "values": [{"measurement": "specificity of action on Ang II receptors", "setting": "[1]; vascular wall, adrenal cortex and other organs", "value": "act specifically on Ang II receptors in the vascular wall, adrenal cortex and other organs to suppress Ang II action only"}, {"measurement": "antagonism of type 1 receptors", "setting": "[4]", "value": "antagonistic"}, {"measurement": "effect on reactions of KCl, norepinephrine, isoproterenol, vasopressin, bradykinin, acetylcholine or 5-HT", "setting": "[5]", "value": "no effect"}, {"measurement": "effect on ACE action", "setting": "[6]", "value": "no effect"}]}
{"compound": "Cc1cc(Cn2cnc3c2CC(C(=O)O)N(C(=O)C(c2ccccc2)c2ccccc2)C3)ccc1N", "note": "(stereo not drawn) [PD123177]", "values": [{"measurement": "Radioactivity (bound [125I]-labeled Ang II)", "setting": "[7]", "value": "69,980 cpm"}, {"measurement": "Competition; IC50 [-log(M)], column A (second; B in text)", "setting": "[2]", "value": "5.49 -log(M)"}, {"measurement": "Competition; IC50 [-log(M)]", "setting": "[3]", "value": "< 6.00 -log(M)"}, {"measurement": "antagonism of type 2 receptors", "setting": "[8]", "value": "antagonistic"}]}
{"compound": "C=C[C@@]1(C)CC(=O)[C@]2(O)[C@@]3(C)[C@@H](O)CCC(C)(C)[C@@H]3[C@H](O)[C@H](OC(C)=O)[C@@]2(C)O1", "note": "[forskolin]", "values": [{"measurement": "formation of cAMP", "setting": "[9]", "value": "about 80 pmol/well"}, {"measurement": "formation of cAMP", "setting": "[10]; 10 μM forskolin in place of Ang II", "value": "about 80 pmol/well"}]}
{"compound": "Ang II", "values": [{"measurement": "Radioactivity (bound [125I]-labeled Ang II)", "setting": "[7]", "value": 676, "unit": "cpm"}, {"measurement": "total IPs production, dose response", "setting": "[11]; 20 minutes after stimulation, final Ang II 1 pM to 10 μM, FIG. 7B", "value": "IPs production was suppressed in response to stimulation with high concentrations of Ang II"}, {"measurement": "IPs production, time course", "setting": "[11]; Ang II 100 nM, 37° C., FIG. 6", "value": "a transient rise in IP3 concentration occurred, followed by formation of IP2 and IP1 in this order"}, {"measurement": "affinity to Ang II", "setting": "[12]", "value": "high affinity"}, {"measurement": "total IPs production, dose response", "setting": "[13]; 20 minutes after stimulation, final Ang II 1 pM to 10 μM, FIG. 7A", "value": "IPs production was not suppressed even in the presence of high concentrations of Ang II"}, {"measurement": "IPs production, time course", "setting": "[13]; Ang II 100 nM, 37° C.", "value": "the same IPs production pattern as with CHO/pHARp306 cells"}, {"measurement": "suppression of forskolin-stimulated cAMP production", "setting": "[10]; 1 pM to 10 μM Ang II plus 10 μM forskolin, 10 minutes, FIG. 8A", "value": "cAMP production suppression depending on Ang II concentration"}]}
{"compound": "Ang III: amino acid number of Ang III is lower by 1 than that of Ang II; used as agonist", "values": [{"measurement": "Radioactivity (bound [125I]-labeled Ang II)", "setting": "[7]", "value": 670, "unit": "cpm"}, {"measurement": "Competition; IC50 [-log(M)], column A (second; B in text)", "setting": "[2]", "value": "9.07 -log(M)"}, {"measurement": "Competition; IC50 [-log(M)]", "setting": "[3]", "value": "7.57 -log(M)"}]}
{"compound": "endothelin 1: endothelin 1 (CSCSSLMDKECVYFCHLDIIW)", "values": [{"measurement": "change in fluorescence (intracellular Ca ion concentration)", "setting": "[14]", "value": "no change occurred in fluorescence"}]}
